Results: publication PMC12449377, “Psychedelic-like effects induced by 2,5-dimethoxy-4-iodoamphetamine, lysergic acid diethylamide, and psilocybin in male and female C57BL/6J mice” (Psychopharmacology, 2025)
Read-outs that look alike come from different tables or passages of the source.

Legend:
[1] = target: T1, 5-HT1A (Mus musculus, UniProt Q64264); test: Competition binding vs [3H]8-OH-DPAT in mouse brain membranes
T1 construct: tissue BioIVT; host or cells: whole C57BL/6 mouse brain minus cerebellum, male and female
T1 sequence (Q64264 1-421): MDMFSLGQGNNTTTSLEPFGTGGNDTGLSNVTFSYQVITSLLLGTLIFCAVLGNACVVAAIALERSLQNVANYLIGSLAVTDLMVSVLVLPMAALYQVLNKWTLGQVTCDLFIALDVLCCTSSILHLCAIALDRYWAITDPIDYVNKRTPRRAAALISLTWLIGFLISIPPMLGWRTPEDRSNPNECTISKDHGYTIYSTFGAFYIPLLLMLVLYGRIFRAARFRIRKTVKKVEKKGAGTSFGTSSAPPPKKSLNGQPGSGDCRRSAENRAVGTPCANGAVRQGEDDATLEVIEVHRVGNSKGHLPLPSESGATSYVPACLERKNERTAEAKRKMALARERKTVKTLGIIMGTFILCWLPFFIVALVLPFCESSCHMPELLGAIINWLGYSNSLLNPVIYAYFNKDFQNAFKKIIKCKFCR
Experimental: (§1) Competition binding studies were conducted in mouse brain tissue as previously described (Glatfelter et al. [2022b]). Briefly, the experiments utilized membranes prepared from whole C57BL/6 mouse brain minus cerebellum (BioIVT, Westbury, NY, USA). […] We assessed the ability of test drugs to compete for [^3H]M100907 binding at 5-HT2A (1 nM) or [^3H]8-OH-DPAT binding at 5-HT1A (0.5 nM). Radioligands were purchased commercially (PerkinElmer, Boston, MA, USA). Nonspecific binding was determined using 10 µM ketanserin for 5-HT2A and serotonin for 5-HT1A. All data represent 3 experiments performed in triplicate.
(§2) Concentration-response data were fit to a single site non-linear regression model. For the HTR studies, potencies were determined from the ascending limb of the dose-response curves using ED50 potency values from [agonist] vs. response (variable slope, four parameter) least squares fit non-linear regression analyses, whereas efficacy was defined by the top output parameter or Emax from the aforementioned analyses. […] Best-fit values for ED50 and Emax from non-linear regression analyses were compared by extra sum-of-squares F tests. Mean effects for each behavioral endpoint were compared using two-way ANOVA (dose x sex), followed by Sidak’s multiple comparisons post-hoc test. Mean effects for pooled mouse behavioral data were compared via Welch’s ANOVA with Dunnett’s T3 post-hoc test, comparing all doses to saline vehicle controls (0 mg/kg). Alpha was set to 0.05 for all analyses.

[2] = tested on: C57BL/6J mice; test: Body temperature change in mice; format: in vivo, mouse; details: for Body Temp Δ (°C) Mean: post 30 min session
Experimental: All mice were injected s.c. with temperature transponders (14 × 2 mm, model IPTT-300, Avidity Science, Waterford Wisconsin, USA) under brief isoflurane immobilization, and were given at least 1 week to recover (Glatfelter et al. [2022b]). Mice were single housed post-implant, and for the duration of the experiments, to protect their devices from being removed by cage mates. Temperature was measured noninvasively using a handheld reader which is sensitive to the transponder signals.
(§3) At 1–2 weeks prior to the beginning of experiments, mice were habituated to handling and receiving s.c. saline injections. On the day of an experiment, mice were acclimated to the testing room in their home cage for at least 30 min prior to the start of sessions. Prior to each session, mice were weighed, and resting body temperatures were recorded. Mice were then placed into experimental chambers for acclimation. Behavioral testing was carried out in TruScan mouse locomotor arenas equipped with photobeam arrays (Coulbourn Instruments, Holliston, MA, USA) that were modified with cylindrical inserts and transparent flooring to aid in semi-automated HTR detection as previously described (Glatfelter et al. [2022a]). After 5 min of acclimation, basal body temperature was recorded followed by s.c. injection of drug or vehicle, and mice were returned to test chambers for 30 min. Dose ranges for each drug were 0.03–10 mg/kg for DOI, 0.03–10 mg/kg for psilocybin, and 0.003–1 mg/kg for LSD. Mice were randomly assigned to specific doses at the beginning of the experiment and received different doses at each session.
(§4) During each session, locomotor activity was quantified via photobeam tracking of distance traveled in cm. Overhead GoPro Hero Black 7 video recordings (120 fps, 960p resolution) were analyzed using a commercially available software package from Clever Sys Inc. (Reston, VA, USA) for the measurement of HTR activity. Mouse body temperature was also collected post-session to calculate temperature change values (basal - post session temperature reading).
as §2

[3] = target: T2, 5-HT2A (Mus musculus, UniProt P35363); test: Competition binding vs [3H]M100907 in mouse brain membranes
T2 construct: tissue BioIVT; host or cells: whole C57BL/6 mouse brain minus cerebellum, male and female
T2 sequence (P35363 whole entry): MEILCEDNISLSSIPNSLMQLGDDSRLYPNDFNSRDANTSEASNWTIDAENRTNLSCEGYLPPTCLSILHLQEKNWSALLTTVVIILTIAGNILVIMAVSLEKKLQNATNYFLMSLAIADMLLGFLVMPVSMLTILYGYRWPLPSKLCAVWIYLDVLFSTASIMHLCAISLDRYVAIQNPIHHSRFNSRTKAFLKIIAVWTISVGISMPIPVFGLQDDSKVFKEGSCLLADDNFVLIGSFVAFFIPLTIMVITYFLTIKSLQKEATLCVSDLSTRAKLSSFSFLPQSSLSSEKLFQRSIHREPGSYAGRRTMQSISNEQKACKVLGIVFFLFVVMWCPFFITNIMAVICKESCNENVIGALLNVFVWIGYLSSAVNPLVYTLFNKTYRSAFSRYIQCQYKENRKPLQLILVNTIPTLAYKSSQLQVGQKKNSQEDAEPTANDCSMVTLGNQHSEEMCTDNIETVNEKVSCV
Experimental: as §1, §2

[4] = tested on: C57BL/6J mice; test: Head twitch response (HTR) in mice; format: in vivo, mouse; details: for HTR (total events) Mean: 30 min; for ED50: Mus musculus, sc
Experimental: Each drug was tested using groups of 12 mice per sex (i.e., 24 total mice per drug). Experimental sessions were conducted once every 1–2 weeks for 2 months per drug. Experimental sessions were spaced apart by at least 1 week to minimize the potential for tolerance to drug effects (Canal and Morgan [2012]; Darmani et al. [1990a]; de la Fuente Revenga et al. [2022]). Experiments were conducted during the light phase (1300–1700 local time; lights on = 0700 in a 12/12 light/dark cycle).
as §3, §4, §2

[5] = male and female mouse brain membranes, summary statement

SMILES: COc1cc(CC(C)N)c(OC)cc1I (stereo not drawn) [DOI, 2,5-dimethoxy-4-iodoamphetamine]
- Ki ([1]; [3H]8-OH-DPAT Binding ♀ m5-HT1A Ki, female mouse brain membranes): 2650 nM
- Ki ([1]; [3H]8-OH-DPAT Binding ♂ m5-HT1A Ki, male mouse brain membranes): 2870 nM
- 5-HT1A binding affinity (Ki), males and females [1, 5]: µM affinity
- Body Temp Δ (°C) Mean ([2]; 0.03 mg/kg s.c., female mice): 0.0 °C
- Body Temp Δ (°C) Mean ([2]; 0.03 mg/kg s.c., male mice): 0.2 °C
- Body Temp Δ (°C) Mean ([2]; 0.03 mg/kg s.c., pooled sexes): 0.1 °C
- Body Temp Δ (°C) Mean ([2]; 0.1 mg/kg s.c., female mice): 0.2 °C
- Body Temp Δ (°C) Mean ([2]; 0.1 mg/kg s.c., male mice): 0.3 °C
- Body Temp Δ (°C) Mean ([2]; 0.1 mg/kg s.c., pooled sexes): -0.1 °C
- Body Temp Δ (°C) Mean ([2]; 0.3 mg/kg s.c., female mice): 0.2 °C
- Body Temp Δ (°C) Mean ([2]; 0.3 mg/kg s.c., male mice): 0.6 °C
- Body Temp Δ (°C) Mean ([2]; 0.3 mg/kg s.c., pooled sexes): 0.2 °C
- Body Temp Δ (°C) Mean ([2]; 1 mg/kg s.c., female mice): -0.3 °C
- Body Temp Δ (°C) Mean ([2]; 1 mg/kg s.c., male mice): -0.1 °C
- Body Temp Δ (°C) Mean ([2]; 1 mg/kg s.c., pooled sexes): 0.4 °C
- Body Temp Δ (°C) Mean ([2]; 3 mg/kg s.c., female mice): -0.3 °C
- Body Temp Δ (°C) Mean ([2]; 3 mg/kg s.c., male mice): -0.1 °C
- Body Temp Δ (°C) Mean ([2]; 3 mg/kg s.c., pooled sexes): -0.2 °C
- Body Temp Δ (°C) Mean ([2]; 10 mg/kg s.c., female mice): -0.4 °C
- Body Temp Δ (°C) Mean ([2]; 10 mg/kg s.c., male mice): -0.9 °C
- Body Temp Δ (°C) Mean ([2]; 10 mg/kg s.c., pooled sexes): -0.6 °C
- Body temperature vs. vehicle controls ([2]; 0.03-10 mg/kg s.c., both sexes): did not change body temperature
- Ki ([3]; [3H]M100907 Binding ♀ m5-HT2A Ki, female mouse brain membranes): 11 nM
- Ki ([3]; [3H]M100907 Binding ♂ m5-HT2A Ki, male mouse brain membranes): 13 nM
- 5-HT2A binding affinity (Ki), males and females [3, 5]: low nanomolar affinity
- HTR (total events) Mean ([4]; 0.03 mg/kg s.c., female mice): 12.5 total events
- HTR (total events) Mean ([4]; 0.03 mg/kg s.c., male mice): 8.8 total events
- HTR (total events) Mean ([4]; 0.03 mg/kg s.c., pooled sexes): 10.7 total events
- HTR (total events) Mean ([4]; 0.1 mg/kg s.c., female mice): 19.7 total events
- HTR (total events) Mean ([4]; 0.1 mg/kg s.c., male mice): 22.4 total events
- HTR (total events) Mean ([4]; 0.1 mg/kg s.c., pooled sexes): 20.8 total events
- HTR (total events) Mean ([4]; 0.3 mg/kg s.c., female mice): 59.0 total events
- HTR (total events) Mean ([4]; 0.3 mg/kg s.c., male mice): 57.3 total events
- HTR (total events) Mean ([4]; 0.3 mg/kg s.c., pooled sexes): 58.2 total events
- HTR (total events) Mean ([4]; 1 mg/kg s.c., female mice): 91.2 total events
- HTR (total events) Mean ([4]; 1 mg/kg s.c., male mice): 89.7 total events
- HTR (total events) Mean ([4]; 1 mg/kg s.c., pooled sexes): 90.4 total events
- HTR (total events) Mean ([4]; 3 mg/kg s.c., female mice): 108.8 total events
- HTR (total events) Mean ([4]; 3 mg/kg s.c., male mice): 106.8 total events
- HTR (total events) Mean ([4]; 3 mg/kg s.c., pooled sexes): 107.8 total events
- HTR (total events) Mean ([4]; 10 mg/kg s.c., female mice): 148.7 total events
- HTR (total events) Mean ([4]; 10 mg/kg s.c., male mice): 103.3 total events
- HTR (total events) Mean ([4]; 10 mg/kg s.c., pooled sexes): 126.0 total events
- ED50 ([4]; female mice, ascending limb of dose-response curve, read-out: HTR ♀ ED50 (95% CI)): 0.52 mg/kg
- ED50 ([4]; male mice, ascending limb of dose-response curve, read-out: HTR ♂ ED50 (95% CI)): 0.3 mg/kg
- ED50 ([4]; pooled male and female mice, read-out: HTR ♂+♀ ED50 (95% CI)): 0.33 mg/kg
- Duration of HTR effect in the session ([4]; peak/active doses, 30 min session): lasted throughout the entire 30 min session
- Time of peak effects on HTR post drug administration ([4]; s.c., both sexes, 30 min session): 5 to 10 min
- HTR ♀ Emax (95% CI) ([4]; s.c., female mice, top of regression fit): 131 (118–146) HTR events
- HTR ♂ Emax (95% CI) ([4]; s.c., male mice, top of regression fit): 105 (93–118) HTR events
- HTR ♂+♀ Emax (95% CI) ([4]; s.c., pooled male and female mice): 111 (101–127) HTR events
